# Laboratory results: US20080279800A1, “AROMACHEMICALS” (Flexitral, Inc., priority 2007, published 2008)
# Assay: Toxicology tests, oral LD50
# Conditions: rat, in vivo, rats
smiles,measurement,value
"CC(C(C)C(C)(C)C)C(C)C1(C)CO1 (stereo not shown) [2-methyl-2-(1,2,3,4,4-pentamethylpentyl)oxirane]",LD50,> 2000 mg/kg
